For one assay, the system named is Bacillus subtilis. The assay is described as follows: antibacterial MIC, broth tube dilution. The assay is classed as cell-based. An excerpt:
(§1) In this paper, the synthesis, characterization, and biological evaluation of the novel tetrahydropyrimidines—THPMs are described. THPMs are well-known for wide pharmacological activities such as antimicrobial, anticancer, antiviral, etc. This research includes obtained results of in vitro antimicrobial, anticancer, and α-glucosidase inhibitory activities of the eleven novel THPMs. An antibiotic assessment was done against five bacteria (two Gram-positive and three Gram-negative) and five fungi by determining the minimal inhibitory concentration (MIC), using the broth tube dilution method. […] The cytotoxic activity was performed on the tumor cell lines (HeLa, K562, and MDA-MB-231) and normal cells (MRC-5). The best antitumor activity was shown by compounds 4b and 4k against HeLa cell lines.
(§2) All materials and methods used for biological examination (antibacterial, antifungal, anticancer, and α-glucosidase inhibitory activities) and crystal structure determination are presented in the Supplementary Materials, File S1.

For the next assay, the system named is Escherichia coli. The assay is described as follows: antibacterial MIC, broth tube dilution. The assay is classed as cell-based.
Description: as §1, §2

The subject of the next assay is Klebsiella oxytoca. The assay is described as follows: antibacterial MIC, broth tube dilution. The assay is classed as cell-based.
Description: as §1, §2

In another assay the test system is Proteus mirabilis. The assay is described as follows: antibacterial MIC, broth tube dilution. The assay is classed as cell-based. To be noted: ND = not detected, read-out: MIC.
Description: as §1, §2

Another assay relates to Staphylococcus aureus. The assay is described as follows: antibacterial MIC, broth tube dilution. The assay is classed as cell-based.
Description: as §1, §2

A further assay relates to Aspergillus flavus. In words: antifungal MIC, broth tube dilution. The assay is classed as cell-based.
Description: as §1, §2

In a further assay the test system is Aspergillus niger. The assay is described as follows: antifungal MIC, broth tube dilution. The assay is classed as cell-based.
Description: as §1, §2

The test system of the next assay is Mucor mucedo. The assay is described as follows: antifungal MIC, broth tube dilution. The assay is classed as cell-based.
Description: as §1, §2

The test system of another assay is Penicillium italicum. In words: antifungal MIC, broth tube dilution. The format is cell-based.
Description: as §1, §2

For assay [1], the system named is Trichophyton mentagrophytes. In words: antifungal MIC, broth tube dilution. The format is cell-based.
Description: as §1, §2

The test system of assay [2] is HeLa cells. In words: cytotoxic activity. The assay is classed as cell-based. To be noted: for selectivity coefficient: HeLa compared with MRC-5 cells; for IC50: Homo sapiens, HeLa, three independent experiments in triplicate, read-out: IC50 Average ± SD. An excerpt:
(§3) All materials and methods used for biological examination (antibacterial, antifungal, anticancer, and α-glucosidase inhibitory activities) and crystal structure determination are presented in the Supplementary Materials, File S1. The cytotoxic activity of eleven novel compounds was examined against HeLa, K562, MDA-MB-231, and MRC-5. The tested compounds exerted concentration-dependent cytotoxic effects on cell lines. […] Compared to compound 4j, 4k has a methyl group in para position of benzoyl fragment; so, probably this structural difference is responsible for better activity and selectivity of compound 4k on HeLa (43.63 ± 1.49 µM) and K562 (39.11 ± 2.90 µM).

In a further assay the test system is K562 cells. In words: cytotoxic activity. The assay is classed as cell-based. To be noted: for IC50: Homo sapiens, K562, three independent experiments in triplicate, read-out: IC50 Average ± SD.
Description: as §3

A further assay concerns MDA-MB-231 cells. In words: cytotoxic activity. The format is cell-based. To be noted: Homo sapiens, three independent experiments in triplicate, read-out: IC50 Average ± SD.
Description: as §3

Assay [3] has as its system normal human lung fibroblasts MRC-5. The assay is described as follows: cytotoxic activity on normal cells. The format is cell-based. As to conditions: MRC5, MRC-5 normal fibroblasts, three independent experiments in triplicate, read-out: IC50 Average ± SD.
Description: as §2
The cytotoxic activity of eleven novel compounds was examined against HeLa, K562, MDA-MB-231, and MRC-5.
The cytotoxic activity was examined against HeLa, K562, MDA-MB-231 cells, and normal human lung fibroblasts MRC-5. […] In addition, the effects of the 4k and 4b on the cell cycle were examined.

A further assay has as its target α-glucosidase. In words: α-glucosidase inhibitory activity. The assay is classed as biochemical. As to conditions: average ± SD of two experiments.
Description: as §2

The subject of assay [4] is HeLa cells. The assay is described as follows: cell-cycle phase distribution. The assay is classed as cell-based. As to conditions: 24 h, IC50 and 2IC50 concentrations, vs untreated control.
Description: as §2
The observed changes in the amounts of treated cells within subG1 and G1 phases of the cell cycle were accompanied with decreased percentages of cells within the S and G2/M phases.
The data shown represent the average ± standard deviation of two independent experiments.

Assay [5] deals with HeLa cells. The assay is described as follows: morphological evaluation of cell death mode, acridine orange/ethidium bromide staining. The assay is classed as cell-based. To be noted: 24 h, 2IC50 concentration. Here is the method:
as §2
The photomicrographs of control HeLa cells and HeLa cells incubated for 24 h with 2IC50 concentrations of the compounds 4b and 4k and stained with a mixture of acridine orange/ethidium bromide are presented in Figure 5. […] Orange-red-stained shrunken cells with condensed chromatin in later stages of apoptosis were detected as well. […] The proapoptotic effect of compound 4b was to some extent stronger when comparing with effect of compound 4k.
Figure 5 Photomicrographs of acridine orange/ethidium bromide-stained control HeLa cells and HeLa cells incubated with 2IC50 concentrations of compounds 4b and 4k during 24 h (magnification 20×). Representative photomicrographs are shown.

Converted amounts (≈) assume the structure as drawn.

A word on the MIC: it is the least concentration at which growth counts as inhibited. As a reminder, the IC50 is the point on the concentration scale where inhibition reaches its midpoint. Regarding `COC(=O)C1=C(C)N(C)C(=S)NC1c1cc(I)c(O)c(OC)c1` (centres unmarked) [4b], the MIC in the assay on Bacillus subtilis stood at 3250 µg/mL (≈ 7.25 mM); in the assay on Escherichia coli it was 1620 µg/mL (≈ 3.61 mM); with Klebsiella oxytoca, 1620 µg/mL (≈ 3.61 mM); in the assay on Proteus mirabilis, 810 µg/mL (≈ 1.81 mM); against Staphylococcus aureus, 1620 µg/mL (≈ 3.61 mM); with Aspergillus flavus, 1620 µg/mL (≈ 3.61 mM). For the same compound, the MIC against Aspergillus niger worked out at 810 µg/mL (≈ 1.81 mM); in the assay with Mucor mucedo, 1620 µg/mL (≈ 3.61 mM); against Penicillium italicum, 1620 µg/mL (≈ 3.61 mM); in assay [1], 400 µg/mL (≈ 0.892 mM). In the assay with HeLa cells [2], this compound showed a selectivity coefficient of 2.13. Besides, the concentration for half-maximal inhibition (IC50) was 52.6 ± 4.45 µM with HeLa cells [2]; 76.8 ± 5.01 µM in the assay on K562 cells; 116 ± 8.71 µM with MDA-MB-231 cells; 112 ± 10.8 µM in assay [3]; 292 ± 6.67 µM against α-glucosidase. In addition, the “percentage of HeLa cells in the G1 phase” value with HeLa cells [4] is given as “pronounced increase”. Besides, the “percentage of dead cells within subG1 phase” value in the assay on HeLa cells [4] was “increase”. The “percentages of cells within the S and G2/M phases” value in the assay on HeLa cells [4] is “decreased”. In addition, the “cell death mode (apoptosis)” value in the assay on HeLa cells [5] is “induce apoptotic cell death”.
On to `COC(=O)C1=C(C)N(C)C(=S)NC1c1ccc(OC(=O)c2ccc(C)cc2)c(OC)c1` (centres unmarked) [4k], for which the MIC amounted to 3250 µg/mL (≈ 7.38 mM) with Bacillus subtilis; 3250 µg/mL (≈ 7.38 mM) in the assay with Escherichia coli; 3250 µg/mL (≈ 7.38 mM) in the assay with Klebsiella oxytoca; 3250 µg/mL (≈ 7.38 mM) in the assay with Proteus mirabilis; 3250 µg/mL (≈ 7.38 mM) against Staphylococcus aureus; 810 µg/mL (≈ 1.84 mM) against Aspergillus flavus. The MIC in the assay with Aspergillus niger came out at 1620 µg/mL (≈ 3.68 mM); against Mucor mucedo, 1620 µg/mL (≈ 3.68 mM); in the assay on Penicillium italicum, 1620 µg/mL (≈ 3.68 mM); in assay [1] it was 200 µg/mL (≈ 0.454 mM). Moreover, the selectivity coefficient with HeLa cells [2] is on record as 2; with K562 cells (K562 compared with MRC-5 cells), 2.23. For the same compound, the IC50 was 43.6 µM with HeLa cells [2]; 39.1 ± 2.9 µM in the assay with K562 cells; 74.1 ± 1.25 µM with MDA-MB-231 cells; 87.2 ± 7.31 µM in assay [3]; 1080 ± 54.5 µM against α-glucosidase. The “percentage of HeLa cells in the G1 phase” value in the assay with HeLa cells [4] is recorded as “pronounced increase”. Moreover, the “percentage of dead cells within subG1 phase” value with HeLa cells [4] is given as “increase”. In the assay with HeLa cells [4], the “percentages of cells within the S and G2/M phases” value is recorded as “decreased”. Besides, the “cell death mode (apoptosis)” value in the assay with HeLa cells [5] is “activate apoptosis”.

(Values after article PMC9610702, “Synthesis, Characterization, and Biological Evaluation of Tetrahydropyrimidines: Dual-Activity and Mechanism of Action” (Pharmaceutics, 2022).)
